In patent US20030143586A1, “Genetic hypermutability of plants for gene discovery and diagnosis” (priority 2001, published 2003):

Legend:
[1] = test system: Conyza canadensis field populations; conditions: cited from earlier work
[2] = test system: horseweed (Conyza canadensis); assay: Glyphosate applied to horseweed plants to confirm sensitivity to the herbicide; format: in vivo
Procedure: Isolation and modification of the genomic DNA: Total horseweed (Conyza Canadensis) genomic DNA was isolated from 100 mg of leaves using Plant DNAZol as described by the manufacturer (Invitrogen). The typical yield was 10-20 μg DNA per preparation. Two different biotypes of horseweed were used as source of the DNA and were designated HR and HS.
Analysis of the DNA Marker: Horseweeds were either germinated from seeds or seedlings were transferred from the field into the greenhouse. DNAs from the genomes of HR and HS horseweeds were isolated. At the same time, glyphosate was applied at 2 lb active ingredient/acre rate to confirm the plants' sensitivity to the herbicide.

O=C(O)CNCP(=O)(O)O [Glyphosate, glyphosate]
field populations naturally resistant to glyphosate [1]: approximately 15%
response to glyphosate treatment ([2]; horseweed biotype designated HR (DNA source, Example 4)): tolerance
response to glyphosate treatment ([2]; horseweed biotype designated HS (DNA source, Example 4)): sensitive
